Test results reported in US9708336B2, “Metallo-beta-lactamase inhibitors” (priority 2014, dated 2017).
Like-named read-outs stand apart in the source and are kept apart here.

Legend:
[1] = target: IMP-1 (Serratia marcescens, UniProt P52699); test: biochemical; type: biochemical; conditions: read-out: IMP-1 IC50
[2] = target: NDM-1 (Klebsiella pneumoniae, UniProt C7C422); test: biochemical; type: biochemical; conditions: read-out: NDM-1 IC50
[3] = target: VIM-1 (Pseudomonas aeruginosa (strain ATCC 15692 / DSM 22644 / CIP 104116 / JCM 14847 / LMG 12228 / 1C / PRS 101 / PAO1), UniProt A0A0F7KYQ8); test: Enzyme activity: determination of IC50, fluorescence assay with CCF2-FA substrate (VIM-1); type: biochemical
[4] = system: Klebsiella pneumoniae expressing VIM-1 (IHMA599644); test: Antibiotic potentiation activity: synergistic concentration (MITC95) with imipenem, OD600 growth; type: cell-based; conditions: for Klebsiella pneumoniae expressing VIM-1 (IHMA 599644) MITC95: concentration giving 95% inhibition of bacterial growth
Outline: (§1)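 Test compound was combined with 4 μg/ml imipenem (or optionally 1 μg/ml), or with no antibiotic, against saline-suspended colonies diluted 1:100 in 1.1×CAMHB. Strains were E. coli NDM-1, S. marcescens IMP-1 and K. pneumoniae VIM-1. Plates were incubated 22–24 h at 35 °C before absorbance (OD600) readout.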

[5] = system: Escherichia coli expressing NDM-1 (CLB30016); test: as above; type: cell-based; conditions: for Escherichia coli expressing NDM-1 (CLB 30016) MITC95: concentration giving 95% inhibition of bacterial growth
Outline: as §1

[6] = system: Serratia marcescens expressing IMP-1 (CL5741); test: as above; type: cell-based; conditions: for Serratia marcescens expressing IMP-1 (CL5741) MITC95: concentration giving 95% inhibition of bacterial growth
Outline: as §1

[7] = fluorescence assay with CCF2-FA substrate
[8] = fluorescence assay with CCF2-FA substrate, read-out: VIM-1 IC50
[9] = IMP-1 enzyme, CCF2-FA fluorescence assay
[10] = NDM-1 enzyme, CCF2-FA fluorescence assay
[11] = VIM-1 enzyme, CCF2-FA fluorescence assay, read-out: VIM-1 IC50
[12] = Klebsiella pneumoniae expressing VIM-1 (IHMA599644), 95% growth inhibition
[13] = Escherichia coli expressing NDM-1 (CLB30016), 95% growth inhibition
[14] = Serratia marcescens expressing IMP-1 (CL5741), 95% growth inhibition
[15] = IMP-1 enzyme, CCF2-FA substrate
[16] = NDM-1 enzyme, CCF2-FA substrate
[17] = VIM-1 IC50, VIM-1 enzyme, CCF2-FA substrate
[18] = Klebsiella pneumoniae IHMA599644 (VIM-1), 95% growth inhibition
[19] = (CLB30016, NDM-1), 95% growth inhibition
[20] = Serratia marcescens CL5741 (IMP-1), 95% growth inhibition
[21] = VIM-1 enzyme, CCF2-FA substrate, read-out: VIM-1 IC50

Chain of IMP-1 (P52699 whole entry, looked up): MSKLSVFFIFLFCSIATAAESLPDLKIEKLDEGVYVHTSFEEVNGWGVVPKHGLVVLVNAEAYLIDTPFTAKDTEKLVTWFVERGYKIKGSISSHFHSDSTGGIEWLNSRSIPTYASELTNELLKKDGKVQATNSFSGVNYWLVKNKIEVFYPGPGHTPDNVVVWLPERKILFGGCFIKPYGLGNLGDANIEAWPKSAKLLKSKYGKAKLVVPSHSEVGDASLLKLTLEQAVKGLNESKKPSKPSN
Chain of NDM-1 (C7C422 whole entry, looked up, species assumed): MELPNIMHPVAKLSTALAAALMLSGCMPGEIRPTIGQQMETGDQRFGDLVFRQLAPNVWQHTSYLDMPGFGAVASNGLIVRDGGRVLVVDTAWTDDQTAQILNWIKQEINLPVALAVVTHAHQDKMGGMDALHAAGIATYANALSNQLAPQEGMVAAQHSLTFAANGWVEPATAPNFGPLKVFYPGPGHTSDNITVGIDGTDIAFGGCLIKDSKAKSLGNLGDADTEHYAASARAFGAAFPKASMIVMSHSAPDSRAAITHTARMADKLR

Structure (SMILES) | IC50 [1, 9] | IC50 [2, 10] | IC50 [3, 11] | Klebsiella pneumoniae MITC95 [4, 12] | Escherichia coli MITC95 [5, 13] | Serratia marcescens MITC95 [6, 14] | IC50 [1, 15] | IC50 [2, 16] | Klebsiella pneumoniae MITC95 [4, 18] | Escherichia coli MITC95 [5, 19] | Serratia marcescens MITC95 [6, 20] | IC50 [3, 21] | other results
NC1(CN2CC(c3ccc(-c4ccc(C(F)(F)F)c(S(N)(=O)=O)c4-c4nnn[nH]4)cc3)C2)CC1 [Example 806, 4′-{1-[(1-aminocyclopropyl)methyl]azetidin-3-yl}-2-(1H-tetrazol-5-yl)-4-(trifluoromethyl)biphenyl-3-sulfonamide] |  |  |  |  |  |  |  |  |  |  |  |  | IC50 [1, 7]: 0.00767 µM; IC50 [2, 7]: 0.00468 µM; IC50 [3, 8]: 0.00502 µM; Klebsiella pneumoniae MITC95 ([4]; IHMA599644 (VIM-1), 95% inhibition of bacterial growth): 12.5 µM; Escherichia coli MITC95 ([5]; CLB30016 (NDM-1), 95% inhibition of bacterial growth): 6.25 µM; Serratia marcescens MITC95 ([6]; CL5741 (IMP-1), 95% inhibition of bacterial growth): 6.25 µM
CN(C)[C@@H]1CCN(Cc2ccc(-c3cccc(S(N)(=O)=O)c3-c3nnn[nH]3)cc2)C1 [Example 347, 4′-{[(3R)-3-(dimethylamino)pyrrolidin-1-yl]methyl}-2-(1H-tetrazol-5-yl)biphenyl-3-sulfonamide] | 0.185 µM | 0.0122 µM | 0.844 µM | 200 µM | 2.344 µM | 3.125 µM |  |  |  |  |  |  | 
CC(O)C1CCN(Cc2ccc(-c3cccc(S(N)(=O)=O)c3-c3nnn[nH]3)cc2)C1 (stereo not drawn) [Example 351, 4′-{[3-(1-hydroxyethyl)pyrrolidin-1-yl]methyl}-2-(1H-tetrazol-5-yl)biphenyl-3-sulfonamide] | 0.332 µM | 0.0181 µM | 0.414 µM | 150 µM | 1.563 µM | 3.125 µM |  |  |  |  |  |  | 
NS(=O)(=O)c1c(C[C@H]2CC[C@@H](N)CC2)ccc(-c2ccc(C3CNC3)cc2)c1-c1nnn[nH]1 [Example 596, 4-(((1s,4s)-4-aminocyclohexyl)methyl)-4′-(azetidin-3-yl)-2-(1H-tetrazol-5-yl)-[1,1′-biphenyl]-3-sulfonamide] |  |  |  |  |  |  | 0.0106 µM | 0.00439 µM | 1.563 µM | 0.7813 µM | 1.563 µM |  | IC50 [3, 17]: 0.00746 µM
NS(=O)(=O)c1cccc(-c2cc3cnccc3s2)c1-c1nnn[nH]1 [Example 411, 2-(1H-tetrazol-5-yl)-3-thieno[3,2-c]pyridin-2-yl-benzenesulfonamide] | 0.102 µM | 0.00484 µM | 0.0278 µM | 25 µM | 0.7813 µM | 3.125 µM |  |  |  |  |  |  | 
NS(=O)(=O)c1c(C(F)(F)F)ccc(-c2cccc(N3CCC(O)CC3)c2)c1-c1nnn[nH]1 [Example 741, 3′-(4-hydroxypiperidin-1-yl)-2-(1H-tetrazol-5-yl)-4-(trifluoromethyl)biphenyl-3-sulfonamide] |  |  |  |  |  |  | 0.00612 µM | 0.00465 µM | >200 µM | 25 µM | 25 µM | 0.00274 µM | 
NC[C@H]1CC[C@H](c2ccc(CC3CCNCC3)c(S(N)(=O)=O)c2-c2nn[nH]n2)CC1 [Example 589, 3-((1r,4r)-4-(aminomethyl)cyclohexyl)-6-(piperidin-4-ylmethyl)-2-(2H-tetrazol-5-yl)benzenesulfonamide] |  |  |  |  |  |  | 0.146 µM | 0.00875 µM | 9.375 µM | 1.172 µM | 4.688 µM | 0.0939 µM | 
NCc1ccc2cc(-c3cccc(S(N)(=O)=O)c3-c3nn[nH]n3)ccc2n1 [Example 286, 3-(2-(aminomethyl)quinolin-6-yl)-2-(2H-tetrazol-5-yl)benzenesulfonamide] | 0.205 µM | 0.00614 µM | 0.0127 µM | 3.125 µM | 0.7813 µM | 3.125 µM |  |  |  |  |  |  | 
NC(=O)C1CCN(c2ccc(C(F)(F)F)c(S(N)(=O)=O)c2-c2nnn[nH]2)CC1 [Example 656, 1-[3-sulfamoyl-2-(1H-tetrazol-5-yl)-4-(trifluoromethyl)phenyl]piperidine-4-carboxamide] |  |  |  |  |  |  | 0.00284 µM | 0.00198 µM | 3.125 µM | 0.5781 µM | 0.125 µM | 0.0008 µM | 
NS(=O)(=O)c1nccc(N2CCC(c3ccncc3)CC2)c1-c1nnn[nH]1 [Example 217, 4-(4-pyridin-4-ylpiperidin-1-yl)-3-(1H-tetrazol-5-yl)pyridine-2-sulfonamide] |  |  |  |  |  |  |  |  |  |  |  |  | IC50 [1, 7]: 0.481 µM; IC50 [2, 7]: 0.043 µM; IC50 ([3]; VIM-1 IC50, fluorescence assay with CCF2-FA substrate): 0.0493 µM; Klebsiella pneumoniae expressing VIM-1 (IHMA 599644) MITC95 [4]: 150 µM; Escherichia coli expressing NDM-1 (CLB 30016) MITC95 [5]: 4.688 µM; Serratia marcescens expressing IMP-1 (CL5741) MITC95 [6]: 12.5 µM
COCc1cc(CCc2ccc(C(F)(F)F)c(S(N)(=O)=O)c2-c2nn[nH]n2)cnc1N [Example 512, 3-(2-(6-Amino-5-(methoxymethyl)pyridin-3-yl)ethyl)-2-(2H-tetrazol-5-yl)-6-(trifluoromethyl)benzenesulfonamide] |  |  |  |  |  |  | 0.0461 µM | 0.162 µM | 2.344 µM | 9.375 µM | 0.9766 µM | 0.0039 µM | 
CC(C)Cc1cccc(S(N)(=O)=O)c1-c1nn[nH]n1 [Example 167, 3-isobutyl-2-(2H-tetrazol-5-yl)benzenesulfonamide] |  |  |  |  |  |  |  |  |  |  |  |  | IC50 [1, 7]: 0.26 µM; IC50 [2, 7]: 0.0124 µM; IC50 [3, 8]: 1.03 µM; Klebsiella pneumoniae expressing VIM-1 (IHMA 599644) MITC95 [4]: 200 µM; Escherichia coli expressing NDM-1 (CLB 30016) MITC95 [5]: 1.563 µM; Serratia marcescens expressing IMP-1 (CL5741) MITC95 [6]: 9.375 µM
NS(=O)(=O)c1c(C(F)(F)F)ccc([C@H]2CC[C@H](NC3CCCNC3)CC2)c1-c1nnn[nH]1 (stereo partly drawn) [Example 697, 3-[4-(piperidin-3-ylamino)cyclohexyl]-2-(1H-tetrazol-5-yl)-6-(trifluoromethyl)benzene sulfonamide] |  |  |  |  |  |  | 0.00642 µM | 0.00161 µM | 6.25 µM | 0.7813 µM | 3.125 µM |  | IC50 [3, 17]: 0.00633 µM
NS(=O)(=O)c1c(C(F)(F)F)ccc(-c2cccc3ncccc23)c1-c1nn[nH]n1 [Example 486, 3-(Quinolin-5-yl)-2-(2H-tetrazol-5-yl)-6-(trifluoromethyl)benzenesulfonamide] | 0.00119 µM | 0.000192 µM | 0.000134 µM | 4.531 µM | 1.208 µM | 0.1367 µM |  |  |  |  |  |  | 
NS(=O)(=O)c1c(CC2CCNCC2)ccc(-c2ccc(C3CCN(CC4CNC4)CC3)cc2)c1-c1nn[nH]n1 [Example 470, 4′-(1-(azetidin-3-ylmethyl)piperidin-4-yl)-4-(piperidin-4-ylmethyl)-2-(2H-tetrazol-5-yl)-[1,1′-biphenyl]-3-sulfonamide] | 0.00323 µM | 0.027 µM | 0.101 µM | 12.5 µM | 0.7813 µM | 1.563 µM |  |  |  |  |  |  | 
NS(=O)(=O)c1c(C(F)(F)F)ccc(N2CCC[C@H](O)C2)c1-c1nnn[nH]1 [Example 657, 3-[(3S)-3-hydroxypiperidin-1-yl]-2-(1H-tetrazol-5-yl)-6-(trifluoromethyl)benzenesulfonamide] |  |  |  |  |  |  | 0.0102 µM | 0.00966 µM | 4.688 µM | 2.344 µM | 0.7813 µM | 0.00209 µM | 
Nc1ccc(-c2ccc(CC[C@H]3CC[C@H](N)CC3)c(S(N)(=O)=O)c2-c2nnn[nH]2)cn1 [Example 577, 6-(2-((1r,4s)-4-aminocyclohexyl)ethyl)-3-(6-aminopyridin-3-yl)-2-(1H-tetrazol-5-yl)benzenesulfonamide] |  |  |  |  |  |  | 0.0296 µM | 0.00247 µM | 12.5 µM | 0.7813 µM | 3.125 µM | 0.0104 µM | 
Cl.Cl.NC1CNCCC1(O)c1ccc(-c2cccc(S(N)(=O)=O)c2-c2nn[nH]n2)cc1 (racemic) [Example 282, 4′-(3-amino-4-hydroxypiperidin-4-yl)-2-(2H-tetrazol-5-yl)-[1,1′-biphenyl]-3-sulfonamide dihydrochloride (trans, racemate)] | 0.266 µM | 0.0215 µM | 0.183 µM | 12.5 µM | 0.7813 µM | 1.563 µM |  |  |  |  |  |  | 
